From patent publication US6150385A, “1,3,4-thiadiazoles useful for the treatment of CMV infections” (Pharmacia & Upjohn Company, priority 1999, dated 2000)

Target: T1, HCMV polymerase (Human cytomegalovirus, UniProt P08546)
T1 construct: made in house; host or cells: SF-9 insect cells infected with recombinant baculovirus
Assay: HCMV polymerase assay (scintillation proximity assay)
Type: biochemical
Details: percentage of inhibition at 25 μM concentration in CMV polymerase assay
Protocol: The compounds of the present invention are tested in an polymerase assay to show activity described below, which is indicative of a compound's activity and thus of its use as an anti-viral agent.
The HCMV polymerase assay is performed using a scintillation proximity assay (SPA) as described in several references, such as N. D. Cook, et al., Pharmaceutical Manufacturing International, pages 49-53 (1992); K. Takeuchi, Laboratory Practice, September issue (1992); U.S. Pat. No. 4,568,649 (1986); which are incorporated by reference herein. Reactions are performed in 96-well plates. The assay is conducted in 100 μl volume with 5.4 mM HEPES (pH 7.5), 11.7 mM KCl, 4.5 mM MgCl2, 0.36 mg/ml BSA, and 90 nM ^3 H-dTTP. Assays are run with and without CHAPS, (3-[(3-Cholamidopropyl)-dimethylammonio]-1-propanesulfonate) at a final concentration of 2 mM. HCMV is diluted in enzyme dilution buffer containing 50% glycerol, 250 mM NaCl, 10 mM HEPES (pH 7.5), 100 μg/ml BSA, and 0.01% sodium azide. The HCMV polymerase, which is expressed in recombinant baculovirus-infected SF-9 cells and purified according to literature procedures, is added at 10% (or 10 μl) of the final reaction volume, i.e., 100 μl. Compounds are diluted in 50% DMSO and 10 μl are added to each well. Control wells contain an equivalent concentration of DMSO. Unless noted otherwise, reactions are initiated via the addition of 6 nM biotinylated poly(dA)-oligo(dT) template/primer to reaction mixtures containing the enzyme, substrate, and compounds of interest. Plates are incubated in a 25° C. or 37° C. H2 O bath and terminated via the addition of 40 μl/reaction of 0.5 M EDTA (pH 8) per well. Reactions are terminated within the time-frame during which substrate incorporation is linear and varied depending upon the enzyme and conditions used, i.e., 30 min. for HCMV polymerase. Ten μl of streptavidin-SPA beads (20 mg/ml in PBS/10% glycerol) are added following termination of the reaction. Plates are incubated 10 min. at 37° C., then equilibrated to room temperature, and counted on a Packard Topcount.
In TABLE 1, "MS" refers to mass spectral data, "% inhib" refers to percentage of inhibition at 25 μM concentration in CMV polymerase assay.

T1 sequence (P08546 whole entry): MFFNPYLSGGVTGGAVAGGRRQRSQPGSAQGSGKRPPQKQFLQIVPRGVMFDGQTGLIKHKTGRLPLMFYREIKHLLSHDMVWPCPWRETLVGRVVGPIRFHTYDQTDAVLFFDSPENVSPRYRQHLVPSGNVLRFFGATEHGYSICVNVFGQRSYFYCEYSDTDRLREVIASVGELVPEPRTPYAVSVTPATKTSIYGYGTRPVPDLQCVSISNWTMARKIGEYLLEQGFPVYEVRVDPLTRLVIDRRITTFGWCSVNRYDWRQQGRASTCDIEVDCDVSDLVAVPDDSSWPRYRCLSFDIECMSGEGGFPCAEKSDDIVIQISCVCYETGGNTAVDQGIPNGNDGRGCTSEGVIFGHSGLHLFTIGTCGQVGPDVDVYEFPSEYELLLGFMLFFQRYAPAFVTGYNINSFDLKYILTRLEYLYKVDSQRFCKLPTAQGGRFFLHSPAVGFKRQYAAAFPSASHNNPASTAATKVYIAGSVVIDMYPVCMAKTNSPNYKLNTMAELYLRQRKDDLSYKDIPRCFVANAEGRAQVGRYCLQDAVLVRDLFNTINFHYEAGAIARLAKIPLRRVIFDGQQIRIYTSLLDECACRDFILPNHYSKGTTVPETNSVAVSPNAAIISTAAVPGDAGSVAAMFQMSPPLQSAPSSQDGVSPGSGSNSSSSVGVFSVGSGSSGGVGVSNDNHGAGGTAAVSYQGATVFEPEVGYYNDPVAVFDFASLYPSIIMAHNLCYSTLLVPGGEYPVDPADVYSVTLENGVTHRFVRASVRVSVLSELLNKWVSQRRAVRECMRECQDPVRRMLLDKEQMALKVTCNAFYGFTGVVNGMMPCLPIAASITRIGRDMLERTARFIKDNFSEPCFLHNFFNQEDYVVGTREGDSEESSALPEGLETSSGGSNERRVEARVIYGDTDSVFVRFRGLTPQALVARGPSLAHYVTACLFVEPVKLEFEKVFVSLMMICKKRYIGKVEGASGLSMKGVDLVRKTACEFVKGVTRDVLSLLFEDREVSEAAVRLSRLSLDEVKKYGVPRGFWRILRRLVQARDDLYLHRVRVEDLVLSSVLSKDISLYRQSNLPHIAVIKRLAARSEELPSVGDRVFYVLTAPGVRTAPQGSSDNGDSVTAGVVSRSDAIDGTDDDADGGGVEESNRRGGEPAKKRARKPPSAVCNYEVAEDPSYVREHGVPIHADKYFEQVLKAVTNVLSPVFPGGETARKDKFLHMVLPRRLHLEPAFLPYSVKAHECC

| SMILES | inhibition at 25 µM [%] | % Inhib [%] |
| --- | --- | --- |
| O=C(/C=C/c1ccccc1Cl)Nc1nnc(NCCCN2CCCC2=O)s1 [compound 208, (E)-3-(2-chlorophenyl)-N-(5-{[3-(2-oxo-1-pyrrolidinyl)propyl]amino}-1,3,4-thiadiazol-2-yl)-2-propenamide] | 44.7 |  |
| CCOc1ccc2ccccc2c1C(=O)Nc1nnc(NCCC(c2ccccc2)c2ccccc2)s1 [compound 61, N-{5-[(3,3-diphenylpropyl)amino]-1,3,4-thiadiazol-2-yl}-2-ethoxy-1-naphthamide] | 74.2 |  |
| O=C(Nc1nnc(NCCCN2CCCC2=O)s1)c1ccc(S(=O)(=O)F)cc1 [compound 371, 4-{[(5-{[3-(2-oxo-1-pyrrolidinyl)propyl]amino}-1,3,4-thiadiazol-2-yl)amino]carbonyl}benzenesulfonyl fluoride] |  | 28.1 |
| CC(C)c1cc(C(C)C)c(C(=O)Nc2nnc(NCc3ccncc3)s2)c(C(C)C)c1 [compound 266, 2,4,6-triisopropyl-N-{5-[(4-pyridinylmethyl)amino]-1,3,4-thiadiazol-2-yl}benzamide] | 38.8 |  |
| O=C(/C=C/c1ccccc1)Nc1nnc(NCCN2CCOCC2)s1 [compound 220, (E)-N-{5-[(2-morpholinoethyl)amino]-1,3,4-thiadiazol-2-yl}-3-phenyl-2-propenamide] | 43.6 |  |
| O=C(Nc1nnc(NCCCN2CCCC2=O)s1)c1ccc(I)cc1 [compound 203, 4-iodo-N-(5-{[3-(2-oxo-1-pyrrolidinyl)propyl]amino}-1,3,4-thiadiazol-2-yl)benzamide] | 45 |  |
| O=C(Nc1nnc(NCc2ccc3c(c2)OCO3)s1)c1c(Cl)cccc1Cl [compound 96] | 65.9 |  |
| Cc1ccc(C(=O)Nc2nnc(NCCc3ccc(S(N)(=O)=O)cc3)s2)cc1 [compound 230, N-(5-{[4-(aminosulfonyl)phenethyl]amino}-1,3,4-thiadiazol-2-yl)-4-methylbenzamide] | 42.3 |  |
| CCOc1ccc2ccccc2c1C(=O)Nc1nnc(NCc2ccc(Cl)c(Cl)c2)s1 [compound 207, N-{5-[(3,4-dichlorobenzyl)amino]-1,3,4-thiadiazol-2-yl}-2-ethoxy-1-naphthamide] | 44.7 |  |
| O=C(/C=C/c1ccccc1Cl)Nc1nnc(NC2CCC2)s1 [compound 276, (E)-3-(2-chlorophenyl)-N-[5-(cyclobutylamino)-1,3,4-thiadiazol-2-yl]-2-propenamide] | 37.9 |  |
| O=C(Nc1nnc(NC2CCN(Cc3ccccc3)CC2)s1)c1cc2ccccc2s1 [compound 218, N-{5-[(1-benzyl-4-piperidinyl)amino]-1,3,4-thiadiazol-2-yl}-1-benzothiophene-2-carboxamide] | 43.6 |  |
| NS(=O)(=O)c1ccc(CNc2nnc(NC(=O)/C=C/c3ccccc3)s2)cc1 [compound 32, (E)-N-(5-{[4-(aminosulfonyl)benzyl]amino}-1,3,4-thiadiazol-2-yl)-3-phenyl-2-propenamide] | 90.6 |  |
| O=C(Nc1nnc(NCCC(c2ccccc2)c2ccccc2)s1)c1ccc2c(c1)C(=O)OC2=O [compound 13, N-{5-[(3,3-diphenylpropyl)amino]-1,3,4-thiadiazol-2-yl}-1,3-dioxo-1,3-dihydro-2-benzofuran-5-carboxamide] | 99.3 |  |
| CCOc1ccc2ccccc2c1C(=O)Nc1nnc(NCCNc2ccccc2)s1 [compound 69, N-{5-[(2-anilinoethyl)amino]-1,3,4-thiadiazol-2-yl}-2-ethoxy-1-naphthamide] | 70.6 |  |
| O=C(Nc1nnc(NCc2ccc3c(c2)OCO3)s1)c1cc2ccccc2s1 [compound 180, N-{5-[(1,3-benzodioxol-5-ylmethyl)amino]-1,3,4-thiadiazol-2-yl}-1-benzothiophene-2-carboxamide] | 48.4 |  |
| O=C(Nc1nnc(NCCCCc2ccccc2)s1)c1ccc(Br)cc1 [compound 170, 4-bromo-N-{5-[(4-phenylbutyl)amino]-1,3,4-thiadiazol-2-yl}benzamide] | 50.5 |  |
| CCOc1ccc2ccccc2c1C(=O)Nc1nnc(NCC(C)(C)C)s1 [compound 233, 2-ethoxy-N-[5-(neopentylamino)-1,3,4-thiadiazol-2-yl]-1-naphthamide] | 42.1 |  |
| O=C(Nc1nnc(NCCC(c2ccccc2)c2ccccc2)s1)c1ccc(S(=O)(=O)F)cc1 [compound 217, 4-[({5-[(3,3-diphenylpropyl)amino]-1,3,4-thiadiazol-2-yl}amino)carbonyl]benzenesulfonyl fluoride] |  | 43.9 |
| O=C(Nc1nnc(NCCCNC2CCCCC2)s1)c1ccc(Cl)c(Cl)c1 [compound 172, 3,4-dichloro-N-(5-{[3-(cyclohexylamino)propyl]amino}-1,3,4-thiadiazol-2-yl)benzamide] | 49.7 |  |
| Cc1ccc(C(=O)Nc2nnc(NCCCNC3CCCCC3)s2)cc1 [compound 162, N-(5-{[3-(cyclohexylamino)propyl]amino}-1,3,4-thiadiazol-2-yl)-4-methylbenzamide] | 51.8 |  |
| O=C(Nc1nnc(NC2CCCc3ccccc32)s1)c1ccc([N+](=O)[O-])o1 (centres unmarked) [compound 192, 5-nitro-N-[5-(1,2,3,4-tetrahydro-1-naphthalenylamino)-1,3,4-thiadiazol-2-yl]-2-furamide] | 47 |  |

The next lines start with results.

| inhibition at 25 µM [%] | SMILES | % Inhib [%] |
| --- | --- | --- |
| 20.1 | O=C(Nc1nnc(NC2CCCc3ccccc32)s1)c1cc(F)cc(F)c1 (centres unmarked) [compound 468, 3,5-difluoro-N-[5-(1,2,3,4-tetrahydro-1-naphthalenylamino)-1,3,4-thiadiazol-2-yl]benzamide] |  |
| 28.7 | N#Cc1ccc(C(=O)Nc2nnc(NCc3cccs3)s2)cc1 [compound 365, 4-cyano-N-{5-[(2-thienylmethyl)amino]-1,3,4-thiadiazol-2-yl}benzamide] |  |
| 25.5 | O=C(Nc1nnc(NCc2cccc3ccccc23)s1)c1ccc(I)cc1 [compound 402, 4-iodo-N-{5-[(1-naphthylmethyl)amino]-1,3,4-thiadiazol-2-yl}benzamide] |  |
| 33.9 | CC1(C)C2CC[C@@H](CNc3nnc(NC(=O)CCCCCl)s3)C1C2 (stereo partly drawn) [compound 312, 5-chloro-N-[5-({[(2R)-6,6-dimethylbicyclo[3.1.1]hept-2-yl]methyl}amino)-1,3,4-thiadiazol-2-yl]pentanamide] |  |
| 20 | O=C(Nc1nnc(NCC2CC2)s1)c1ccc(I)cc1 [compound 470, N-{5-[(cyclopropylmethyl)amino]-1,3,4-thiadiazol-2yl}-4-iodobenzamide] |  |
| 30.9 | N#Cc1ccc(C(=O)Nc2nnc(NCCc3ccccc3)s2)cc1 [compound 345, 4-cyano-N-[5-(phenethylamino)-1,3,4-thiadiazol-2-yl]benzamide] |  |
| 34 | COc1ccccc1C(=O)Nc1nnc(NC2CCCCCC2)s1 [compound 310, N-[5-(cycloheptylamino)-1,3,4-thiadiazol-2-yl]-2-methoxybenzamide] |  |
| 37.4 | CCCCCCCC/C=C/CCCCCCCC(=O)Nc1nnc(NC2CCc3ccccc32)s1 (centres unmarked) [compound 279, (E)-N-[5-(2,3-dihydro-1H-inden-1-ylamino)-1,3,4-thiadiazol-2-yl]-9-octadecenamide] |  |
| 24 | CN1CCN(CCCNc2nnc(NC(=O)/C=C/c3ccccc3Cl)s2)CC1 [compound 422, (E)-3-(2-chlorophenyl)-N-(5-{[3-(4-methylpiperazino)propyl]amino}-1,3,4-thiadiazol-2-yl)-2-propenamide] |  |
| 31.2 | O=C(Nc1nnc(NC2CCCc3ccccc32)s1)c1cc2ccccc2s1 (centres unmarked) [compound 343, N-[5-(1,2,3,4-tetrahydro-1-naphthalenylamino)-1,3,4-thiadiazol-2-yl]-1-benzothiophene-2-carboxamide] |  |
| 37.3 | O=C(Nc1nnc(NCCC(c2ccccc2)c2ccccc2)s1)c1cc(F)cc(F)c1 [compound 281, N-{5-[(3,3-diphenylpropyl)amino]-1,3,4-thiadiazol-2-yl}-3,5-difluorobenzamide] |  |
| 33.9 | NS(=O)(=O)c1ccc(CNc2nnc(NC(=O)c3ccc(Cl)c(Cl)c3)s2)cc1 [compound 311, N-(5-{[4-(aminosulfonyl)benzyl]amino}-1,3,4-thiadiazol-2-yl)-3,4-dichlorobenzamide] |  |
| 26.5 | CC1(C)C2CC[C@@H](CNc3nnc(NC(=O)c4cc(F)cc(F)c4)s3)C1C2 (stereo partly drawn) [compound 389, N-[5-({[(2R)-6,6-dimethylbicyclo[3.1.1]hept-2-yl]methyl}amino)-1,3,4-thiadiazol-2-yl]-3,5-difluorobenzamide] |  |
| 21.9 | O=C(Nc1nnc(NCCc2cccs2)s1)c1ccc(F)cc1F [compound 445] |  |
